According to patent publication US6191282A, “Substituted 5-membered ring heterocycles comprising a bicyclic or tricyclic group their preparation and their use” (Hoechst Marion Roussel, priority 1993, dated 2001):
pIC50, pKi: −log10 of the molar value. Where a name gives a salt, the structure may show the parent alone. Read-outs that look alike come from different tables or passages of the source.

Tests used:
[1] = target: T1, isolated fibrinogen receptor (glycoprotein IIb/IIIa) (Homo sapiens, UniProt P05106+P08514); experiment: Inhibition of 125I-fibrinogen binding to the isolated, immobilized receptor (glycoprotein IIb/IIIa) (Test method 3); details: isolated receptor immobilized in microtitre plates; read-out: Ki, inhibition of the binding of 125I-fibrinogen, ADP-stimulated
T1 construct: isolated from human thrombocytes and immobilized in microtitre plates; from tissue; host or cells: human thrombocytes (platelets), receptor isolated
T1 sequence (P08514 32-887 limits assumed): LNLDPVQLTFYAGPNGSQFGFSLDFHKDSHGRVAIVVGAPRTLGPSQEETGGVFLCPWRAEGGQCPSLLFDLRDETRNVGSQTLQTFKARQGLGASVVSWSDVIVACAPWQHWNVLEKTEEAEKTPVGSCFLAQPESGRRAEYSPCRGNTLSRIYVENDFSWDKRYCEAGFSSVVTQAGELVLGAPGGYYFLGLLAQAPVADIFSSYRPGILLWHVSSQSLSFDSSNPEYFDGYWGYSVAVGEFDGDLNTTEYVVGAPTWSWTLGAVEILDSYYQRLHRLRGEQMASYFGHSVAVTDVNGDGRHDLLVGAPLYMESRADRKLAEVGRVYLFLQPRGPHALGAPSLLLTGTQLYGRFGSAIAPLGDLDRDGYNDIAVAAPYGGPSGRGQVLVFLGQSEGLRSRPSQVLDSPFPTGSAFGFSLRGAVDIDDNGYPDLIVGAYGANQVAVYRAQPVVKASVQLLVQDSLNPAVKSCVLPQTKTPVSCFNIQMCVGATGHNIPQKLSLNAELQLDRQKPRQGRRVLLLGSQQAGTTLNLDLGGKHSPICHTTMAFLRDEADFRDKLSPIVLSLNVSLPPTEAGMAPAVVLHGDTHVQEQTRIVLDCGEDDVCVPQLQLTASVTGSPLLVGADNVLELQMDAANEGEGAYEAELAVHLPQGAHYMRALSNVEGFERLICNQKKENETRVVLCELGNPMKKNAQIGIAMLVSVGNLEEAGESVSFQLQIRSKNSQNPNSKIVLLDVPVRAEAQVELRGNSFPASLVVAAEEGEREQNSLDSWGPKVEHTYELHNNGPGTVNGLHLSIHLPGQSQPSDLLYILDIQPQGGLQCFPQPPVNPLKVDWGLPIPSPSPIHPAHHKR
T1 sequence (P08514 891-1039 partner limits assumed): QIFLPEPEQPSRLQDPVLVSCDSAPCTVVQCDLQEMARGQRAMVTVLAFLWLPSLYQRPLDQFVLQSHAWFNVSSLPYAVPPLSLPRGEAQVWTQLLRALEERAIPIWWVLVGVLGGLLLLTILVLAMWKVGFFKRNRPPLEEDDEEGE
T1 sequence (P05106 27-788): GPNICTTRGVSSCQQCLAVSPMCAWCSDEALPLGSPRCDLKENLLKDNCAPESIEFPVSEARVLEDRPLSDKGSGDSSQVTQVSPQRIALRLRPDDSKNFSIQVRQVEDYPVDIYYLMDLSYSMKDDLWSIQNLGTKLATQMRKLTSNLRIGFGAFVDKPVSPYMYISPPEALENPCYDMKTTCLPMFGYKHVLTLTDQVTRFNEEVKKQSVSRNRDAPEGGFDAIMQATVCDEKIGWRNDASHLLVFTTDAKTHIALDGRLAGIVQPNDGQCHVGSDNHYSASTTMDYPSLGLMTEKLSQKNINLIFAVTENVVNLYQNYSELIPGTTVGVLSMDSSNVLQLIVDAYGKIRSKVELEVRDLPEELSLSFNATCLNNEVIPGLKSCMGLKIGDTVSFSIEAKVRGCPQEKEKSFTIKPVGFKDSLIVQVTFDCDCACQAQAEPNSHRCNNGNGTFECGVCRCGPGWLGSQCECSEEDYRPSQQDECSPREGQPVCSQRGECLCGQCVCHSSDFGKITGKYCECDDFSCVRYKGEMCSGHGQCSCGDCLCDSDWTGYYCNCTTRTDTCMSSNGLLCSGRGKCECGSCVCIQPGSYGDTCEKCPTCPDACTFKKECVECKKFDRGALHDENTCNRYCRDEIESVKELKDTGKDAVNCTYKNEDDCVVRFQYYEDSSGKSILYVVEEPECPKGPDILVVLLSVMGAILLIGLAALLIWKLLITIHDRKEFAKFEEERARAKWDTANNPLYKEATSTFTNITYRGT
Experimental: The inhibition of the binding of fibrinogen to its receptor (glycoprotein IIb/IIIa) which is brought about by the compounds according to the invention is tested on the isolated receptor, which was isolated from human thrombocytes and immobilized in microtitre plates.

[2] = target: T2, fibrinogen receptor (glycoprotein IIb/IIIa) on intact, gel-filtered human thrombocytes (Homo sapiens, UniProt P05106+P08514); experiment: Inhibition of 125I-fibrinogen binding to its receptor (glycoprotein IIb/IIIa) on intact, gel-filtered human thrombocytes (Test method 2); details: intact GFP, 10 μM ADP, 40 nmol/l 125I-fibrinogen, room temperature, 30 min; read-out: Ki, inhibition of the binding of 125I-fibrinogen, ADP-stimulated
T2 construct: endogenous in cells; host or cells: human thrombocytes isolated from platelet-rich plasma by gel filtration on Sepharose 2 B
T2 sequence (P08514 32-887 limits assumed): as the sequence (P08514 32-887 limits assumed) above
T2 sequence (P08514 891-1039 partner limits assumed): as the sequence (P08514 891-1039 partner limits assumed) above
T2 sequence (P05106 27-788): as the sequence (P05106 27-788) above
Experimental: The inhibition of the binding of fibrinogen to its receptor (glycoprotein IIb/IIIa) by the compounds according to the invention is tested on intact, gel-filtered human thrombocytes.
For this purpose, human thrombocytes were isolated from platelet-rich plasma (PRP) by gel filtration on Sepharose 2 B. A suspension of gel-filtered platelets (GFP) was obtained which contained 4×10^8platelets/ml. […] Aliquots of 100 μl were then added onto 20% sucrose, and the platelets were sedimented by being centrifuged for 2 minutes at 12,000 revolutions per minute. The supernatant was decanted carefully and completely and the remaining sediment was measured in a gamma counter. The specific binding was ascertained by subtracting the binding in the presence of an excess (10 μM) of unlabelled fibrinogen from the total bound radioactivity.

[3] = system: gel-filtered human thrombocytes; experiment: Inhibition of the aggregation of gel-filtered human thrombocytes following stimulation with ADP or thrombin (Test method 1); assay type: cell-based; details: Homo sapiens, 1 mg/ml fibrinogen, 37° C., GFP from 2-4 donors
Experimental: As a functional test, measurement is made of the inhibition of the aggregation of gel-filtered human thrombocytes, following stimulation with ADP or thrombin, by the compounds according to the invention.
For this purpose, human thrombocytes were isolated from platelet-rich plasma (PRP) by gel filtration on Sepharose 2 B. The resulting suspension of gel-filtered platelets (GFP), which contained 3×10^8 platelets/ml, was activated in the presence of 1 mg/ml of fibrinogen either with 10 μM ADP or with 0.1 U/ml thrombin, and stirred in an aggregometer (PAP 4, Biodata, Hatboro, Penna., USA) at 37° C. and at 1000 revolutions per minute. The maximum increase in the translucency is taken as a measure of the aggregation. The test substances were added to the GFP at 37° C. and 2 min before activating with ADP or thrombin.

[4] = ADP-stimulated (10 μM ADP), read-out: IC50, inhibition of thrombocyte aggregation, ADP-stimulated
[5] = Thrombin-stimulated (0.1 U/ml thrombin), read-out: IC50, inhibition of thrombocyte aggregation, Thrombin-stimulated

Compound	pKi [1]	pKi [2]	pIC50 [3, 4]	pIC50 [3, 5]
CC1(c2ccc(C(=N)N)cc2)NC(=O)N(CC(=O)N[C@@H](CC(=O)O)C(=O)N[C@H](C(=O)O)c2ccccc2)C1=O (stereo partly drawn) [Example 1, ((R,S)-4-(4-(Aminoiminomethyl)phenyl)-4-methyl-2,5-dioxoimidazolidin-1-yl)-acetyl-L-aspartyl-L-phenylglycine]	9.76	7.88	7.40	7.30
CC1(c2ccc(C(=N)N)cc2)NC(=O)N(CC(=O)N[C@@H](CC(=O)O)c2ccccc2)C1=O (stereo partly drawn) [Example 56, (S)-3-(((R,S)-4-(4-(aminoiminomethyl)phenyl)-4-methyl-2,5-dioxoimidazolidin-1-yl)acetylamino)-3-phenylpropionic acid hydrochloride]	9.31	7.66	7.00	7.22
